The values that follow come from patent publication US10624340B2, “Chemical combinations for attracting Vespidae” (priority 2017, dated 2020).

Assay type in all cases: in vivo, V. pensylvanica
The test system of assay [1] is Vespidae. Nature of the assay: Box attraction test of single test agents (Example 1). To be noted: 500 μL test agent in white box, 15 min tests, two tests, San Mateo County, July 2016; acetic acid 5%, citric acid 750 mM, ethanol 40%.
Assay [2] concerns Vespidae. As to the kind of experiment: Box attraction test of heptyl butyrate with citric, malic or tartaric acid (Experiment 3). To be noted: 500 μL of each agent, white box, 15 min tests, three tests, July 2017, acid alone, heptyl butyrate alone and combination run together, * P < 0.05 vs heptyl butyrate alone. As to the method:
Materials and Methods. The third experiment evaluated combinations of heptyl butyrate and citric acid, malic acid, and tartaric acid versus heptyl butyrate alone as baits for Vespidae.
Attraction Measurements. Testing the efficacy of attraction of the chemicals was conducted using an apparatus that allows visualization of the Vespidae to an area with the attractant. This can be prepared in a variety of ways including the use of white 4-sided boxes in which the different attractants are placed at the bottom of the box. Attraction of the Vespidae to the boxes is visualized and Vespidae are counted when they fly into the plane of the box toward the attractant. Each experiment lasted 15 minutes and every 5 minutes, the boxes would be cleared of Vespidae and rotated counterclockwise to eliminate any possible effect of direction. Each experiment was conducted three times over the course of one day, for a total of 9 replicates per test.
Boxes were prepared using white paper (one foot square) and applying them to equal sizes of cardboard to create a 4-sided box with the white paper in the inside of the box. Boxes were placed in a triangle pattern on the ground and spaced equally three to four feet apart. Disposable plates with clipped-on absorbent material in them were placed in the bottom on the boxes. Each tested combination of attractants was poured onto the absorbent material on the plate and placed into a testing box.
Chemical Treatments. Four chemical treatments were selected and combined with heptyl butyrate and compared to heptyl butyrate alone as baits for Vespidae. Chemicals combined with heptyl butyrate included citric acid solution (5 grams in 50 mLs of water), malic acid (6 grams in 50 mLs of water), and tartaric acid (7 grams in 50 mLs of water). Experiment 3 used 500 μL of each test agent combined for a total of 1000 μL total volume in each test. The heptyl butyrate test used 500 μL of water and 500 µL of heptyl butyrate.

The subject of assay [3] is Vespidae. Nature of the assay: 14-day trapping test in RESCUE Reusable Yellowjacket traps (Experiment 4). To be noted: 2 mL heptyl butyrate with or without 2 mL acid solution in trap, hung 14 days, counted day 15. As to the method:
Materials and Methods. The fourth experiment evaluated combinations of heptyl butyrate and citric acid, malic acid, and tartaric acid versus heptyl butyrate alone as baits for Vespidae. Heptyl butyrate was included for comparison because of its known attractiveness to V. pensylvanica (Davis et al., 1969, Supra).
Attraction Measurements. Testing the efficacy of attraction of the chemicals was conducted using four standard commercially-available RESCUE Reusable Yellowjacket® traps filled with the various test agents. In this experiment, the traps were set and hung 5-6 feet off of the ground with all traps separated by 3-4 feet from one another. Chemical treatments were added to the attractant chambers (cotton absorbant material) of the trap and hung for 14 days. Measurements of the number of trapped Vespidae were made on day 15.
Chemical Treatments. Four chemical treatments were selected and combined with heptyl butyrate and compared to heptyl butyrate alone as baits for Vespidae. Chemicals combined with heptyl butyrate included citric acid solution (5 grams in 50 mLs of water), malic acid (6 grams in 50 mLs of water), and tartaric acid (7 grams in 50 mLs of water). Experiment 4 used 2 mL of the standard attractant (heptyl butyrate) as is found in the RESCUE reusable yellowjacket traps for the heptyl butyrate alone test. […]

“And” between values parts separate entries of the source, which are not always exact repeats. Equal values may be shown once.

With `CC(=O)O` [Acetic Acid, acetic acid], the “Total Number of Vespidae Attracted to Single Test Agents, Sum Test 1 + 2” value (“Total Number … Sum Test 1 + 2” below) in assay [1] came to 2.
Regarding `CCCC(=O)O` [Butyric Acid, butyric acid], in assay [1], the “Total Number … Sum Test 1 + 2” value is on record as 5.
As for `O=C(O)CC(O)(CC(=O)O)C(=O)O` [Citric Acid, citric acid], in assay [1], the “Total Number … Sum Test 1 + 2” value was determined as 10. Further, the “Total Number of Vespidae Attracted to Different Test Conditions” value (shortened to “Total Number … to Different Test Conditions”) in assay [2] is given as 22.
Take `CCO` [Ethanol, ethanol]: the “Total Number … Sum Test 1 + 2” value in assay [1] is 2.
Consider `CCCCCCCOC(=O)CCC` [Heptyl Butyrate, heptyl butyrate], for which the “Total Number of V. Pensylvanica (Vespidae) Trapped During a 14-Day Test” value in assay [3] is listed as 91. Also, in assay [1], the “Total Number … Sum Test 1 + 2” value was 343. In addition, the “Total Number … to Different Test Conditions” value in assay [2] was 355 and 590 and 477; in assay [2] (listed as heptyl butyrate), 477 and 355 and 590.
For `CC(C)CO` [Isobutanol, isobutanol], in assay [1], the “Total Number … Sum Test 1 + 2” value was determined as 21.
Still for that read-out and setting: the value for `CC(O)C(=O)O` (stereo not shown) [Lactic Acid, lactic acid] was 5.
Consider `O=C(O)CC(O)C(=O)O` (stereo not shown) [Malic Acid, malic acid], for which the “Total Number … to Different Test Conditions” value in assay [2] turned out to be 19.
Still for that read-out and setting: next, `O=C(O)C(O)C(O)C(=O)O` (stereo not shown) [Tartaric Acid, tartaric acid]: 15.
